US20130225694A1, “COMPOSITIONS AND METHODS OF INHIBITING RETINAL DEGENERATION” (Oklahoma Medical Research Foundation, priority 2012, published 2013)

Target: T1, RPE65 isomerohydrolase (Rattus norvegicus, UniProt O70276)
T1 construct: 50 μg microsomal proteins from the rat RPE were added into 200 μl of reaction buffer; from tissue; host or cells: rat eyecup/RPE microsomes
T1 sequence (O70276 1-533): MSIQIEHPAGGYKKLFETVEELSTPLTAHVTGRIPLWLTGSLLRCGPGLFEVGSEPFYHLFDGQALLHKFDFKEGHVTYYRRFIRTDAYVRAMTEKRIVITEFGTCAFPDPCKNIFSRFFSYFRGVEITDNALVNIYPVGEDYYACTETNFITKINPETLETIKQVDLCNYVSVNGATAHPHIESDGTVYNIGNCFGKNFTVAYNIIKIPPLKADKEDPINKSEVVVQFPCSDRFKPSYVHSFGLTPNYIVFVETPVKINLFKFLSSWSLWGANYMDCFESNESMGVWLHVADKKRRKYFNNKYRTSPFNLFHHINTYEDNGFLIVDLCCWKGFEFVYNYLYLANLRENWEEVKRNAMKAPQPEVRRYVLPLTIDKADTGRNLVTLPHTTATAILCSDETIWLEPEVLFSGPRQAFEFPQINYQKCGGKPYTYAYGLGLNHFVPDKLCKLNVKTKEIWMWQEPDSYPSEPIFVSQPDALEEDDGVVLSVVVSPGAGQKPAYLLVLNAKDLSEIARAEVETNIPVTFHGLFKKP
Experiment: Isomerohydrolase activity assay with rat RPE microsomes (Example 2)
Assay type: biochemical
Procedure: Isomerohydrolase activity assay and PBN inhibition—Rats were sacrificed, and eyes were enucleated and dissected to remove the anterior part including lens, vitreous, and retina. The remaining eyecups containing RPE were sonicated 3 times for 20 seconds in a cold 0.32 M sucrose/0.1 M sodium phosphate buffer (pH 7.4). The homogenate was centrifuged (20 minutes, 20,000 g) to sediment sclera, unbroken cells, nuclei and mitochondria. The obtained supernatant was recentrifuged (1 hour, 100,000 g), and the microsomal pellet was resuspended in 10 mM 1,3-bis[tris(hydroxymethyl)-methylamino]propane (BTP), (pH 8.0) and 100 mM NaCl, and stored at −80° C. All-trans-[11,12-^3H]-retinol (1 mCi/ml, 45.5 Ci/mmol, American Radiolabeled Chemical, Inc., St. Louis, Mo.) in N,N-dimethyl formamide was used as the substrate for the isomerohydrolase assay. […] The upper layer was collected, and the generated retinoids were analyzed by normal phase HPLC as described (38). […] The isomerohydrolase activity was calculated from the area of the 11-cis-retinol peak using Radiomatic 610TR software (Perkin Elmer, Boston, Mass.) with synthetic 11-cis-[^3H]-retinol as a standard. […] The inhibition constant for PBN was calculated from the following equation: […] where [I]=concentration of PBN, Vm^i=maximal velocity in the presence of Vm=maximal velocity in the absence of PBN. […]

CC(C)(C)/[N+]([O-])=C/c1ccccc1 [Compound 1, α-phenyl-N-tert-butyl nitrone]
inhibition of 11-cis-retinol generation (1 mM PBN): almost complete inhibition | IC50 (rat RPE microsomes, 0.2 μM all-trans-[3H]-retinol, 1 h 37° C., read-out: apparent IC50 of isomerohydrolase activity): 100 µM
